Values after ≈ are worked out from the molar mass of the structure shown.
What was measured:
Format in all cases: functional
[1] = test system: Mycobacterium tuberculosis; test: Antimycobacterial activity against ethambutol-resistant Mycobacterium tuberculosis H37Rv ATCC 35837 assessed as inhibition of bacterial growth incubated for 48 hrs by resazurin microtitre assay
[2] = test system: Mycobacterium tuberculosis; test: Antimycobacterial activity against rifampicin-resistant Mycobacterium tuberculosis H37Rv ATCC 35838 assessed as inhibition of bacterial growth incubated for 48 hrs by resazurin microtitre assay
[3] = test system: Mycobacterium tuberculosis; test: Antimycobacterial activity against Streptomycin-resistant Mycobacterium tuberculosis H37Rv ATCC 35820 assessed as inhibition of bacterial growth incubated for 48 hrs by resazurin microtitre assay
[4] = test system: Mycobacterium tuberculosis; test: Antimycobacterial activity against isoniazid-resistant Mycobacterium tuberculosis H37Rv ATCC 35822 assessed as inhibition of bacterial growth incubated for 48 hrs by broth microdilution assay

`O=C(/C=C/c1ccc([N+](=O)[O-])o1)c1cccc(Nc2nc3ccccc3o2)c1` was tested, and the MIC [1] was 0.06 µg/mL (≈ 0.16 µM), the MIC [2] was 0.03 µg/mL (≈ 0.0799 µM) and the MIC [3] was 0.12 µg/mL (≈ 0.32 µM). For the same compound, the MIC [4] was 0.25 µg/mL (≈ 0.666 µM).

Work on `NNC(=O)c1ccncc1` [ISONIAZID] yielded an MIC [1] of 0.03 µg/mL (≈ 0.219 µM), an MIC [2] of 0.03 µg/mL (≈ 0.219 µM) and an MIC [3] of 0.03 µg/mL (≈ 0.219 µM). It also gave an MIC [4] of over 64 µg/mL.

For `O=C(/C=C/c1ccc([N+](=O)[O-])o1)c1ccc(Nc2nc3ccccc3o2)cc1`, the MIC [1] was 0.03 µg/mL (≈ 0.0799 µM), the MIC [2] was 0.03 µg/mL (≈ 0.0799 µM) and the MIC [3] was 0.12 µg/mL (≈ 0.32 µM). For the same compound, the MIC [4] was 0.06 µg/mL (≈ 0.16 µM).

Work on `O=C(/C=C/c1ccc([N+](=O)[O-])o1)c1ccc(Nc2nc3cc([N+](=O)[O-])ccc3o2)cc1` yielded an MIC [1] of 0.06 µg/mL (≈ 0.143 µM), an MIC [2] of 0.03 µg/mL (≈ 0.0714 µM) and an MIC [3] of 0.12 µg/mL (≈ 0.285 µM). It also gave an MIC [4] of 0.25 µg/mL (≈ 0.595 µM).

With `O=C(/C=C/c1ccc([N+](=O)[O-])o1)c1ccc(Nc2nc3cc(Cl)ccc3o2)cc1` the MIC [1] was 0.03 µg/mL (≈ 0.0732 µM), the MIC [2] was 0.03 µg/mL (≈ 0.0732 µM) and the MIC [3] was 0.06 µg/mL (≈ 0.146 µM). For the same compound, the MIC [4] was 0.06 µg/mL (≈ 0.146 µM).

Compound `CO[C@H]1/C=C/O[C@@]2(C)Oc3c(C)c(O)c4c(O)c(c(/C=N/N5CCN(C)CC5)c(O)c4c3C2=O)NC(=O)/C(C)=C\C=C\[C@H](C)[C@H](O)[C@@H](C)[C@@H](O)[C@@H](C)[C@H](OC(C)=O)[C@@H]1C` [RIFAMPIN] has an MIC [1] of 0.03 µg/mL (≈ 0.0365 µM), an MIC [2] of 64 µg/mL (≈ 77.8 µM) and an MIC [3] of 0.03 µg/mL (≈ 0.0365 µM). The MIC [4] was 0.03 µg/mL (≈ 0.0365 µM).

`Cc1ccc2oc(Nc3ccc(C(=O)/C=C/c4ccc([N+](=O)[O-])o4)cc3)nc2c1` was tested, and the MIC [1] was 0.06 µg/mL (≈ 0.154 µM), the MIC [2] was 0.03 µg/mL (≈ 0.077 µM) and the MIC [3] was 0.06 µg/mL (≈ 0.154 µM). It also gave an MIC [4] of 0.12 µg/mL (≈ 0.308 µM).

With `CC[C@@H](CO)NCCN[C@@H](CC)CO` [ETHAMBUTOL] the MIC [1] was 32 µg/mL (≈ 157 µM), the MIC [2] was 1 µg/mL (≈ 4.89 µM) and the MIC [3] was 1 µg/mL (≈ 4.89 µM). The MIC [4] was 1 µg/mL (≈ 4.89 µM).

Compound `CN[C@@H]1[C@H](O[C@H]2[C@H](O[C@H]3[C@H](O)[C@@H](O)[C@H](N=C(N)N)[C@@H](O)[C@@H]3N=C(N)N)O[C@@H](C)[C@]2(O)C=O)O[C@@H](CO)[C@H](O)[C@H]1O` [STREPTOMYCIN] has an MIC [1] of 1 µg/mL (≈ 1.72 µM), an MIC [2] of 1 µg/mL (≈ 1.72 µM) and an MIC [3] of over 64 µg/mL. It also gave an MIC [4] of 1 µg/mL (≈ 1.72 µM).

From ChEMBL document CHEMBL5143690, “Identification of nitrofuranylchalcone tethered benzoxazole-2-amines as potent inhibitors of drug resistant Mycobacterium tuberculosis demonstrating bactericidal efficacy” (Bioorg Med Chem, 2022)
